One series concerns the target T1, CCL17 chemokine (Homo sapiens, UniProt Q92583).
T1 construct: purchased; host or cells: HEK 293 cells stably transfected with EGFP-CCR4, transiently transfected with Gqi5
T1 sequence (Q92583 24-94): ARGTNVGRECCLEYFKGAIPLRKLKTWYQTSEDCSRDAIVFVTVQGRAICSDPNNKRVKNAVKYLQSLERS
As to the kind of experiment: Inhibition of calcium response induced by CCL17 in HEK 293 cells expressing CCR4 (Indo-1). It is filed as cell-based. The protocol: HEK 293 cells (ATCC) are cultured in minimal essential medium MEM (Invitrogen) in the presence of 10% of fetal calf serum (Gibco-BRL), 100 U/mL of penicillin (Invitrogen), 100 μg/mL of streptomycin (Invitrogen) and 2 mM of L-glutamine (Invitrogen) at 37° C. in water-saturated atmosphere and containing 5% of 002. […] The clones are selected after having been characterized by fluorescence microscopy and cytometric analysis by FACS (fluorescence assisted cell sorting).
(§1) In order to enable an easy recording of the cell responses associated to the CCR4 receptor, we modify its natural coupling to the inhibition of AMPc production to a coupling to the phospholipase C which enables calcium measurements. We produce for this purpose the chimeric protein Gqi5 by directed mutagenesis of the 5 las amino acids of Gq replaced by their homologues of Gi. The cells expressing the CCR4 receptor are transfected with the plasmid pCNA3.1 in which the cDNA encoding Gqi5 has been incorporated. The recordings of calcic responses are performed the day after de transfection.
(§2) The cells are loaded with a fluorescent calcium indicator, INDO-1, according to the protocol provided by the provider (Molecular probes), distributed in microplate wells and placed in a fluorescence reader-pipettor (FlexStation, Molecular devices).
Measure points are recorded every 5 s for 150 s for each well. The molecules are tested in the presence of 5 nM of CCL17 chemokine (commercial).
The molecules are tested at the concentration of 10 μm. The concentration of CCL17 is 5 nM.

A further series deals with T2, CCL22 (Homo sapiens, UniProt O00626).
T2 sequence (O00626 25-93): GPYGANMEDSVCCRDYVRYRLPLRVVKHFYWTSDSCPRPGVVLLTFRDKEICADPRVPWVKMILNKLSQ
As to the kind of experiment: Inhibition of calcium response induced by CCL22 in cells expressing CCR4 (Indo-1). Conditions: molecules at 10 μm, read-out: Inhibition of calcium responses induced by CCL22 (%). It is filed as cell-based. Here is the method: In order to enable an easy recording of the responses associated to the CCR4 receptor, the cDNA which allows its expression is cloned in the plasmid pIRES (ClonTech) in fusion with the GFP protein, according to Vollmer et al. (1999), which enables to easily measure the expression of the chimeric EGFP-CCR4 receptor. HEK 293 cells (ATCC) are cultured in minimal essential medium MEM (Invitrogen) in the presence of 10% of fetal calf serum (Gibco-BRL), 100 U/mL of penicillin (Invitrogen), 100 μg/mL of streptomycin (Invitrogen) and 2 mM of L-glutamine (Invitrogen) at 37° C. in water-saturated atmosphere and containing 5% of 002. The cells are transfected according to the calcium phosphate precipitate method of Chen ant Okayama, 1986, and the cells having incorporated the expression plasmid are selected with 600 μg/mL of geneticin G-418 (PAA) for 5 weeks. The clones are selected after having been characterized by fluorescence microscopy and cytometric analysis by FACS (fluorescence assisted cell sorting).
as §1, §2
Intracellular calcium elevation is measured by fluorescence intensity change at 401 and 475 nm (excitation 355 nm). Measure points are recorded every 5 s for 150 s for each well. The molecules are tested in the presence of 5 nM of CCL17 chemokine (commercial).
The response develops in a few seconds and fades with time for reaching the return in approximately 2 minutes for a CCL17 chemokine concentration of 5 to 10 nM in HEK 293 cells expressing CCR4. If the molecules to be tested are preincubated with chemokine [CK+N] and if the mixture is added to the cells, we observe a strong decrease in the amplitude of the response if the molecule to be tested is a neutralizing ligand of the chemokine. Conversely, when the neutralizing ligand is preincubated with the cells expressing the receptor [CKR+N] we observe a much smaller decrease of the amplitude of the response.
The analysis of the molecules selectivity is carried out by measuring the inhibition (at the concentration of 10 μm) of the response evoked by other chemokines (5 μm) on their respective receptors. Thus, in FIG. 3, the molecules have been tested on the pairs CCL2/CCR2, CCL3/CCR5, CCL17/CCR4, CCL22/CCR4, […], CXCL11/CXCR3, CXCL12/CXCR4.

The next series concerns the target T3, CCL17 (Homo sapiens, UniProt Q92583).
T3 sequence (Q92583 24-94): T1 sequence (Q92583 24-94)
As to the kind of experiment: Interaction affinity with CCL17 by fluorescence extinction of tryptophan residues. It is filed as binding. The note with it: CCL17 1.5 μm, excitation 285 nm. Here is the method:
Briefly: the fluorescence measurements are carried out on a spectrofluorimeter Fluorolog 3 (JobinYvon/Spex) in a quartz cuvette. […] The measurements are carried out at 20° C. and the solutions are stirred using a magnetic stir bar. The recorded emission spectra are corrected by subtraction of the emission spectrum of the compound to be tested alone.

The subject of series [1] is Hacat cells. As to the kind of experiment: Human keratinocytes migration assay (in vitro wound-healing test in a cell monolayer). It is filed as cell-based. The protocol:
It is actually known that, in chronic pathologies an important cell migration may promote de formation of pruritus, one of the signs of dermatosis. The immortalized human keratinocytes obtained from the DKFZ (Heidelberg, Germany) are cultivated in Dulbecco medium modified by Eagle (DMEM, Invitrogen) supplemented with 10% of fetal calf serum (Gibco-BRL) and 100 U/ml of penicillin (Invitrogen), 100 μg/ml of streptomycin (Invitrogen) and 2 mM of L-glutamine (Invitrogen) at 37° C. and 5% of CO2. The wells of a culture plate of 24 well are inoculated with 200,000 cells and the culture is maintained until formation of a confluent cell monolayer. The cell monolayer is then damaged by performing a linear gap (scratch) using a sterile pipette head of 0.1-10 μL. […] The effect of the molecules alone is also recorded in different wells. In order to block cell proliferation, each well receives a dose of 1 μg/ml of mitomycin (Sigma-Aldrich). The culture plates are arranged in the IncuCyte apparatus (Essence Bioscience) which records the growth on the cell monolayer by transmitted imaging in cell culture conditions (37° C., 5% CO2, water-saturated atmosphere) for 72 h. Phase-contrast images are collected every 2 hours. Healing is defined (quantified) as the ratio of the width of the scar at time t and time 0. The experiment is repeated three times per condition.

Series [2] deals with Hacat cells. As to the kind of experiment: Cytotoxicity measurement, WST-1 metabolic activity test. The format is cell-based, human. Conditions: 0.3 μM, 10 μM or 30 μM, 72 hours.
In the next series the test system is human monocytes. As to the kind of experiment: Cytotoxicity on human monocytes, Alamar blue assay. The note with it: human monocytes with LPS, 5 concentrations, 24 hours. The format is cell-based. Here is the method: Monocytes are inoculated in plates of 96 wells (approx. 5000 cells/well of 200 μl) for the Alamar blue assay.
After 24 hours, Alamar blue fluorescence is measured.
A general note: Alamar Blue is a resazurin reagent that responds to reducing activity.

The target of another series is T4, COX-1 (Homo sapiens, UniProt P23219).
T4 construct: endogenous in cells; host or cells: human monocytes in culture
The series can be described thus: COX-1 activity by PGE2 production in monocytes treated with arachidonic acid. The format is cell-based. Conditions: up to 250 μM. Here is the method:
(§3) Determination of the Activity of COX 1 and COX 2 Cyclooxygenases on Human Monocytes in Culture.
COX-1: the release of COX-1 mediated prostaglandin E2 (PGE2) is determined by the arachidonic acid method. […] After 15 minutes of stimulation, the activity of COX-1 is measured by determination of the production of PGE2. Aspirin (ASS) a known inhibitor of COX-1 is used as a control inhibitor.

Another series deals with T5, COX-2 (Homo sapiens, UniProt P35354).
T5 construct: endogenous in cells; host or cells: human monocytes in culture, LPS-induced
T5 sequence (P35354 18-604): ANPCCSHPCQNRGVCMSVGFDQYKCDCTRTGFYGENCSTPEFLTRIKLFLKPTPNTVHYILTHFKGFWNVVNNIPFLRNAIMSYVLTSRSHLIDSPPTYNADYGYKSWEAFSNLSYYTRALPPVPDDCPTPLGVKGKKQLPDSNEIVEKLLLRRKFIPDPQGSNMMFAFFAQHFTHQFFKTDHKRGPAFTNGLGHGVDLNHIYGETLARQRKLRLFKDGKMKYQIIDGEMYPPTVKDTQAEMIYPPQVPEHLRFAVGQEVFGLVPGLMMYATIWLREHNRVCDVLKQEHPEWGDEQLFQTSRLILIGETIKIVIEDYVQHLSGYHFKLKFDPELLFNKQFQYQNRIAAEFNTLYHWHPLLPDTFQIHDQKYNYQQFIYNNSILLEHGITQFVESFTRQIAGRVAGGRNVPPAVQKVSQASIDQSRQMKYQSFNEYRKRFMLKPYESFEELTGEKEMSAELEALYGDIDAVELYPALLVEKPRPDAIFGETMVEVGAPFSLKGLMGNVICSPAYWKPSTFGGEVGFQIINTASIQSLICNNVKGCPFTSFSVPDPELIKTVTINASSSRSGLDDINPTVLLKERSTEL
The series can be described thus: COX-2 activity by PGE2 production in LPS-induced monocytes. The format is cell-based. Conditions: LPS-treated monocytes. Here is the method: as §3
COX-2: monocytes are incubated with LPS (10 U/ml) for 24 h in order to induce COX-2 synthesis. […] The arachidonic acid is added 15 minutes after the compounds to be tested, and 15 minutes later the production of PGE2 is determined.

[3] abbreviates: HEK293, read-out: Inhibition of calcium responses induced by CCL17 (%).
The mark [4] stands for this setting: HEK293, molecules at 10 μm, CCL17 5 nM, HEK 293 cells expressing CCR4, read-out: Inhibition of calcium responses induced by CCL17 (%).

Molecules are shown by their SMILES. Read-outs that look alike come from different tables or passages of the source.

By inhibition is commonly meant the percentage by which the read-out fell short of the control. Take `CC(C)Cn1cnc2c1c(=O)n(C)c(=O)n2C` [GPS008659, 3,7-dihydro-7-isobutyl-1,3-dimethyl-1H-purine-2,6-dione]: the inhibition at 10 µM came to 36 ± 7% at CCL17 chemokine (setting [3]) and 5 ± 5% at CCL22.

With `Cc1nc2c(=O)[nH]c(=O)[nH]c2[nH]1` [GPN062], the inhibition at 10 µM on CCL17 chemokine (setting [4]) and on CCL22 was 0% throughout.

On to `CCCCn1cnc2c1c(=O)n(C)c(=O)n2C` [GPS008658, 3,7-dihydro-7-butyl-1,3-dimethyl-1H-purine-2,6-dione], for which the inhibition at 10 µM on CCL17 chemokine (setting [3]) is 40 ± 9%; on CCL22, 32 ± 8%.

Regarding `CC(C)=CCn1cnc2c1c(=O)n(C)c(=O)n2C` [GPN279, 3,7-dihydro-1,3-dimethyl-7-(3-methyl-2-butenyl)-1H-purin-2,6-dione], the “Inhibition of calcium responses induced by CCL17 (%)” value on CCL17 chemokine (molecules at 10 μm, CCL17 5 nM, HEK 293 cells expressing CCR4) was 42 ± 4%. The inhibition at 10 µM at CCL22 worked out at 0%. Besides, the “Fluorescence extinction of CCL17 (intrinsic tryptophan fluorescence)” value on CCL17 is recorded as “fluorescence extinction of CCL17 is observed”. In the series on Hacat cells [1] (Hacat monolayer, CCL17 100 ng/ml, 72 hours), the “Effect on cell migration accelerated by the CCL17 chemokine” value was “abolished”. In addition, in the series on Hacat cells [1] (with CCL17, 0.3 μM, 1 μM, 10 μM), the “Dose-response relationship on Hacat cell monolayer healing” value is given as “its effect depends on the dose”. Besides, in the series with Hacat cells [1] (without CCL17), the “Effect of the molecule alone on Hacat cell monolayer healing” value is “does not have an effect”. In the series on Hacat cells [2], the “Activity of the mitochondrial enzyme (WST-1, absorbance 450 nm)” value is recorded as “does not affect enzymatic activity”. In addition, in the series on human monocytes, the “Cytotoxicity by Alamar blue” value is given as “not cytotoxic”. Besides, the “COX-1 inhibition (PGE2 production)” value on COX-1 is “not a COX-1 inhibitor”. For the same molecule, the “Effect on COX-2 activity (PGE2 production)” value on COX-2 (beyond 100 μM) is recorded as “slight increase in COX-2 activity”; on COX-2 (up to the dose of 100 μM) it was “no effect”.

`Cn1c(=O)c2[nH]cnc2n(C)c1=O` [Theophylline, reference compound]: the inhibition at 10 µM at CCL17 chemokine (setting [3]) and at CCL22 was 0% throughout.

For `COc1cc2nc(N3CCC(N4CCCCC4)CC3)nc(NC3CCCCCC3)c2cc1OC` [C-021, reference compound], the “Fluorescence extinction of CCL17 (intrinsic tryptophan fluorescence)” value on CCL17 is “no signal”.

Turning to `CC(C)Cn1c(=O)n(C)c(=O)c2nc[nH]c21` [IBMX, reference compound], the inhibition at 10 µM at CCL17 chemokine (setting [4]) and on CCL22 was 0% each time.

In the case of `CCCCC(CC)Cn1cnc2c1c(=O)n(C)c(=O)n2C` (stereo not shown) [GPS008661, 3,7-dihydro-7-(2-ethylhexyl)-1,3-dimethyl-1H-purine-2,6-dione], the inhibition at 10 µM at CCL17 chemokine (setting [4]) and at CCL22 was 0% each time.

On to `Cn1c(=O)c2c(ncn2C)n(C)c1=O` [Caffeine, reference compound], for which the inhibition at 10 µM at CCL17 chemokine (setting [4]) and at CCL22 was 0% each time.

For `C=CCn1cnc2c1c(=O)n(C)c(=O)n2C` [GPS008660, 3,7-dihydro-7-allyl-1,3-dimethyl-1H-purine-2,6-dione], the values for the inhibition at 10 µM on CCL17 chemokine (setting [3]) and at CCL22 were 19 ± 5% and 0%, respectively.

(Values after US10828309B2, “Dermocosmetic or pharmaceutical use of a composition comprising at least one inhibitor of some chemoattractant cytokines” (GREENPHARMA, priority 2014, dated 2020).)
